Results taken from article PMC3156243, “Properties and Crystal Structure of Methylenetetrahydrofolate Reductase from Thermus thermophilus HB8” (PLoS ONE, 2011).

Target: T1, MTHFR (methylenetetrahydrofolate reductase) (Thermus thermophilus, UniProt Q5SLG6)
T1 construct: gene TTHA0327
Test: biochemical

T1 sequence (Q5SLG6 1-296): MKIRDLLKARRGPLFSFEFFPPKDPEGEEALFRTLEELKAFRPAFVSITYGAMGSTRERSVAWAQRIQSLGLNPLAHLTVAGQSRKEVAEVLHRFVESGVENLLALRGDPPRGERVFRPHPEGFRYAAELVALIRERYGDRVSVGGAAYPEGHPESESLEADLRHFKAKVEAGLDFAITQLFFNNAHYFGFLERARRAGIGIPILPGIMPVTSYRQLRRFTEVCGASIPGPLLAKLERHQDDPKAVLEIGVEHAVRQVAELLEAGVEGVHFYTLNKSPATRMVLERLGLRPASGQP

`CN1c2c(nc(N)[nH]c2=O)NC[C@@H]1CNc1ccc(C(=O)N[C@@H](CCC(=O)O)C(=O)O)cc1` (mixture of isomers) [(6S)-5-CH3-H4folate] gave a Ki of 15 ± 6 µM.
